Measurements reported in ChEMBL document CHEMBL3870313, “Synthesis and structure-activity relationship study of tacrine-based pyrano[2,3-c]pyrazoles targeting AChE/BuChE and 15-LOX” (Eur J Med Chem, 2016).

Tests used:
Cholinesterase = Cholinesterase (Homo sapiens, UniProt P06276)
Description: Inhibition of human recombinant BChE using butyrylthiocholine iodide as substrate incubated for 5 mins followed by substrate addition measured for 1 min by Ellman's method

Acetylcholinesterase [1] = target: T1, Acetylcholinesterase (Electrophorus electricus, UniProt O42275)
Description: Inhibition of electric eel AChE using acetylthiocholine iodide as substrate incubated for 5 mins followed by substrate addition measured for 1 min by Ellman's method

in vitro [2] = conditions: human, HepG2 cells
Description: Cytotoxicity against human HepG2 cells assessed as cell viability at 1 uM after 24 hrs by MTT assay

in vitro [3] = conditions: human, HepG2 cells; remark: listed apart in the source
Description: Cytotoxicity against human HepG2 cells assessed as cell viability at 300 uM after 24 hrs by MTT assay

in vitro [4] = conditions: human, HepG2 cells; remark: listed apart in the source
Description: Cytotoxicity against human HepG2 cells assessed as cell viability at 10 uM after 24 hrs by MTT assay

Acetylcholinesterase [5] = target: T1, Acetylcholinesterase; assay: Mixed type inhibition of electric eel AChE using acetylthiocholine iodide as substrate incubated for 5 mins followed by substrate addition measured for 1 min by Lineweaver-Burk plot analysis
in vitro [6] = conditions: human, HepG2 cells; remark: listed apart in the source
Description: Cytotoxicity against human HepG2 cells assessed as cell viability at 25 uM after 24 hrs by MTT assay

in vitro [7] = conditions: human, HepG2 cells; remark: listed apart in the source
Description: Cytotoxicity against human HepG2 cells assessed as cell viability at 5 uM after 24 hrs by MTT assay

in vitro [8] = conditions: human, HepG2 cells; remark: listed apart in the source
Description: Cytotoxicity against human HepG2 cells assessed as cell viability at 100 uM after 24 hrs by MTT assay

[9] = target: Acetylcholinesterase (Electrophorus electricus) (UniProt O42275); assay: Potency index, ratio of tacrine IC50 to compound IC50 for electric eel AChE
in vitro [10] = conditions: human, HepG2 cells; remark: listed apart in the source
Description: Cytotoxicity against human HepG2 cells assessed as cell viability at 50 uM after 24 hrs by MTT assay

T1 sequence (O42275 whole entry): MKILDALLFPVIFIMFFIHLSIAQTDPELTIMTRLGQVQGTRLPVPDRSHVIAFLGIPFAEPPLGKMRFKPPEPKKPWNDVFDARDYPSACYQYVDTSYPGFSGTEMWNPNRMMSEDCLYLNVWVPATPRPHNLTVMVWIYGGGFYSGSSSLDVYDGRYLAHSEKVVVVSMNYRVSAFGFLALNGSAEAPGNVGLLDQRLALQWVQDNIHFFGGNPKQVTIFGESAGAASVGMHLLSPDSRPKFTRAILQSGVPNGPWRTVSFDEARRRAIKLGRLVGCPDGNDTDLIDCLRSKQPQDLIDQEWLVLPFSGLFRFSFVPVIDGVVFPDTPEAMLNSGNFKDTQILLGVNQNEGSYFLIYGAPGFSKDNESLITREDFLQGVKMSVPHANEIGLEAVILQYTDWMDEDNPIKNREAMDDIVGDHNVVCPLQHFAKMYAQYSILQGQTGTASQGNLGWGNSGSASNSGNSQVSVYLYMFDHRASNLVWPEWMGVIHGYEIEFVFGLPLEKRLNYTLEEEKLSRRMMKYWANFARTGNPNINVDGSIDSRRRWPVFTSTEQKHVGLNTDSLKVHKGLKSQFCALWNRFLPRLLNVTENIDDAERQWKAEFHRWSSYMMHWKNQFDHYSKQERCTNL
Chain of Cholinesterase (P06276 whole entry): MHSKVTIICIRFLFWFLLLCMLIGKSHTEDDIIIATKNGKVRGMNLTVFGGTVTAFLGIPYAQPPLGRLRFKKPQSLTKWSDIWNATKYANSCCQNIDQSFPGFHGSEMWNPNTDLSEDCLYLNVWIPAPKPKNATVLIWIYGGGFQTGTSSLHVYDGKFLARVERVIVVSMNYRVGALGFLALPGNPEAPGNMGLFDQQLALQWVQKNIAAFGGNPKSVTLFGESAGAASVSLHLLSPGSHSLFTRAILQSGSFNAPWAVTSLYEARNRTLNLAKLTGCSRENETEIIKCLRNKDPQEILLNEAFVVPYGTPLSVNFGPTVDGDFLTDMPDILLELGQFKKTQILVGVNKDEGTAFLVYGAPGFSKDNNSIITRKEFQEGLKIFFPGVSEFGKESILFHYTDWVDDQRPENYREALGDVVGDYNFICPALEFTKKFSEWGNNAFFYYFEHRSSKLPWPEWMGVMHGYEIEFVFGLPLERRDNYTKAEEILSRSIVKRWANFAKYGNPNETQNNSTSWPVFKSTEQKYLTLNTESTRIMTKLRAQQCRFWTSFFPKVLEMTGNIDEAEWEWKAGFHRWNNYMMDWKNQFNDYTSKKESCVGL
Chain of Acetylcholinesterase (Electrophorus electricus) (O42275 24-633 limits assumed): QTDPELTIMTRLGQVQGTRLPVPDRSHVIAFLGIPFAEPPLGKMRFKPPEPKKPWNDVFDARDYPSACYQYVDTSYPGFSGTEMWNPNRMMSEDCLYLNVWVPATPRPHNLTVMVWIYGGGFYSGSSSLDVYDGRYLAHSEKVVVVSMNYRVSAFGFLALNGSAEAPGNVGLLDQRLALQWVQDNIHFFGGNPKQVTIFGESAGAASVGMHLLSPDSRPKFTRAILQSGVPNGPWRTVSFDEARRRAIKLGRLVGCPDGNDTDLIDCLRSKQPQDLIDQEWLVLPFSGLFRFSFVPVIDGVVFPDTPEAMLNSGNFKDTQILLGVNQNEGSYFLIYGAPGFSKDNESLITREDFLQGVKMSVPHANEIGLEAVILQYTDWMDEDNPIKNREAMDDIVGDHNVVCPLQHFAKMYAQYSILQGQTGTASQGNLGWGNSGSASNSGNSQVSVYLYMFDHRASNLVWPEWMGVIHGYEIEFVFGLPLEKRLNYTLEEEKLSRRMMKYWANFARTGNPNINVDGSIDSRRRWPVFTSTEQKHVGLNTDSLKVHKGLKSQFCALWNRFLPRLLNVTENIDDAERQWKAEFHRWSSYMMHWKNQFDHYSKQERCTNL

| Compound | IC50 (Cholinesterase) [nM] | IC50 (Acetylcholinesterase [1]) [nM] | further results |
| --- | --- | --- | --- |
| CCCc1n[nH]c2c1C(c1ccc(Cl)cc1)c1c(nc3c(c1N)CCCCC3)O2 (stereo unspecified) | 75 | 1060 |  |
| CCCc1n[nH]c2c1C(c1ccc(OC)cc1)c1c(nc3c(c1N)CCCC3)O2 (stereo unspecified) | 6 | 52 |  |
| CCCc1n[nH]c2c1C(c1ccc(N(C)C)cc1)c1c(nc3c(c1N)CCCC3)O2 (stereo unspecified) | 24 | 347 |  |
| Nc1c2c(nc3c1C(c1ccc(Cl)cc1)c1c(-c4ccccc4)n[nH]c1O3)CCCCC2 (stereo unspecified) | 77 | 1920 |  |
| CCCc1n[nH]c2c1C(c1cccc(Br)c1)c1c(nc3c(c1N)CCCC3)O2 (stereo unspecified) | 15 | 472 |  |
| CCCc1n[nH]c2c1C(c1ccc(Cl)cc1)c1c(nc3c(c1N)CSCC3)O2 (stereo unspecified) | 15 | 300 |  |
| Nc1c2c(cc3c1C(c1ccccc1)c1c(-c4ccccc4)n[nH]c1O3)CCCC2 (stereo unspecified) | 8 | 140 |  |
| Nc1c2c(nc3c1C(c1ccccc1)c1c(-c4ccccc4)n[nH]c1O3)CCCCC2 (stereo unspecified) | 9 | 54 |  |
| Nc1c2c(cc3c1C(c1ccc(F)cc1)c1c(-c4ccccc4)n[nH]c1O3)CCCC2 (stereo unspecified) | 7 | 34 | viability at 24 h, 1 µM (in vitro [2]): 101%; viability at 24 h, 300 µM (in vitro [3]): 73.4%; viability at 24 h, 10 µM (in vitro [4]): 100%; Ki (Acetylcholinesterase [5]): 490 nM; viability at 24 h, 25 µM (in vitro [6]): 99.7%; viability at 24 h, 5 µM (in vitro [7]): 100%; viability at 24 h, 100 µM (in vitro [8]): 89.9%; Ratio IC50 [9]: 6; viability at 24 h, 50 µM (in vitro [10]): 98.4% |
| COc1ccc(C2c3c(-c4ccccc4)n[nH]c3Oc3cc4c(c(N)c32)CCCC4)cc1 (stereo unspecified) | 7 | 81 | viability at 24 h, 1 µM (in vitro [2]): 99.1%; viability at 24 h, 300 µM (in vitro [3]): 71.3%; viability at 24 h, 10 µM (in vitro [4]): 99.7%; viability at 24 h, 25 µM (in vitro [6]): 99.7%; viability at 24 h, 5 µM (in vitro [7]): 99.4%; viability at 24 h, 100 µM (in vitro [8]): 85.6%; viability at 24 h, 50 µM (in vitro [10]): 98.2% |
| COc1cc(C2c3c(-c4ccccc4)n[nH]c3Oc3nc4c(c(N)c32)CCCC4)cc(OC)c1OC (stereo unspecified) | 65 | 1030 |  |
| Nc1c2c(nc3c1C(c1ccc(Cl)cc1)c1c(-c4ccccc4)n[nH]c1O3)CCSC2 (stereo unspecified) | 30 | 450 |  |
| CCCc1n[nH]c2c1C(c1ccccc1OC)c1c(nc3c(c1N)CCCC3)O2 (stereo unspecified) | 18 | 471 |  |
| CCCc1n[nH]c2c1C(c1ccc(SC)cc1)c1c(nc3c(c1N)CCCC3)O2 (stereo unspecified) | 8 | 201 |  |
| CCCc1n[nH]c2c1C(c1cccc([N+](=O)[O-])c1)c1c(nc3c(c1N)CCCC3)O2 (stereo unspecified) | 12 | 423 |  |
| Nc1c2c(cc3c1C(c1ccc(Cl)cc1)c1c(-c4ccccc4)n[nH]c1O3)CCCC2 (stereo unspecified) | 21 | 260 |  |
| CCCc1n[nH]c2c1C(c1ccc(C#N)cc1)c1c(nc3c(c1N)CCCC3)O2 (stereo unspecified) | 37 | 954 |  |
| Nc1c2c(nc3c1C(c1ccccc1)c1c(-c4ccco4)n[nH]c1O3)CCCC2 (stereo unspecified) | 15 | 100 |  |
| CCCc1n[nH]c2c1C(c1ccc(OC)c(OC)c1)c1c(nc3c(c1N)CCCC3)O2 (stereo unspecified) | 365 | 1470 |  |
| Nc1c2c(nc3c1C(c1ccccc1)c1c(-c4ccccc4)nn(-c4ccccc4)c1O3)CCCC2 (stereo unspecified) | > 200000 | > 200000 |  |
| Nc1c2c(nc3c1C(c1ccccc1)c1c(-c4ccco4)nn(-c4ccccc4)c1O3)CCCC2 (stereo unspecified) | 5 | 72 | viability at 24 h, 1 µM (in vitro [2]): 99.6%; viability at 24 h, 300 µM (in vitro [3]): 67.4%; viability at 24 h, 10 µM (in vitro [4]): 90.3%; viability at 24 h, 25 µM (in vitro [6]): 85%; viability at 24 h, 5 µM (in vitro [7]): 95.8%; viability at 24 h, 100 µM (in vitro [8]): 75.7%; viability at 24 h, 50 µM (in vitro [10]): 81.4% |
| CCCc1n[nH]c2c1C(c1ccccc1)c1c(nc3c(c1N)CCCCC3)O2 (stereo unspecified) | 43 | 650 |  |
| CCCc1n[nH]c2c1C(c1cc(OC)c(OC)c(OC)c1)c1c(nc3c(c1N)CCCC3)O2 (stereo unspecified) | 42 | 900 |  |
| CCCc1n[nH]c2c1C(c1ccc(C)cc1)c1c(nc3c(c1N)CSCC3)O2 (stereo unspecified) | 73 | 1030 |  |
| CCCc1n[nH]c2c1C(c1ccc(C)cc1)c1c(nc3c(c1N)CCCC3)O2 (stereo unspecified) | 13 | 120 |  |
| Cc1ccc(C2c3c(-c4ccccc4)n[nH]c3Oc3cc4c(c(N)c32)CCCC4)cc1 (stereo unspecified) | 11 | 98 |  |
| CCCc1n[nH]c2c1C(c1ccc([N+](=O)[O-])cc1)c1c(nc3c(c1N)CCCC3)O2 (stereo unspecified) | 29 | 744 |  |
| CC(C)C1c2c(-c3ccccc3)n[nH]c2Oc2nc3c(c(N)c21)CCCC3 (stereo unspecified) | 570 | 15000 |  |
| CCCc1n[nH]c2c1C(c1ccc(Cl)cc1)c1c(nc3c(c1N)CCCC3)O2 (stereo unspecified) | 10 | 200 |  |
